Values of other authors as cited in US11376213B2, “Topical pharmaceutical formulation” (Futura Medical Developments Limited, priority 2016, dated 2022).
Counter-ions that a name gives are not always drawn.

Tests used:
[1] = not given; remark: listed apart in the source
[2] = factor by which greater than piroxicam

SMILES: CC(C)Cc1ccc(C(C)C(=O)O)cc1 (centres unmarked) [Ibuprofen, isobutylphenylpropionic acid]
- aqueous solubility: extremely low

SMILES: O=C(O)Cc1ccccc1Nc1c(Cl)cccc1Cl [diclofenac acid]
- saturated solubility in polyethylene glycol ([1]; polyethylene glycol): 11.18 % w/w
- saturated solubility in propylene glycol [1]: 1.16 % w/w

SMILES: O=C(O)Cc1ccccc1Nc1c(Cl)cccc1Cl [diclofenac]
- efficacy index (ratio of skin penetration to potency) relative to piroxicam [2]: ~10^3

SMILES: O=C(O)Cc1ccccc1Nc1c(Cl)cccc1Cl [sodium salt of diclofenac acid, diclofenac sodium]
- saturated solubility in propylene glycol [1]: approximately 50 % w/w
